# Test results as given in paper PMC7932537, “Quantitative profiling of protease specificity” (PLoS Computational Biology, 2021).
# Tests used:
# MMP-2 = test: Substrate phage display with NGS: relative probability (RP) of P3-P1' tetramer clusters; assay type: biochemical, human; conditions: for relative probability (RP) of matching tetramer: P3-P1' tetramer matching the MS detected MMP2 cleavage sequence, RP_above_4.5; for normalized RP - MMP2: normalized RP of matching tetramer; for avg_RP: MMP2 - no binning; for MMP2 relative probability (RP): MMP2 tetramers from unique substrates, unrounded values; for corresponding MMP2 relative probability (RP): MMP9 tetramers from unique substrates, RP of same tetramer for MMP2
# MMP-9 = test: as above; assay type: biochemical, human; conditions: for normalized RP - MMP9: normalized RP of matching tetramer; for corresponding MMP9 relative probability (RP): MMP2 tetramers from unique substrates, RP of same tetramer for MMP9; for MMP9 relative probability (RP): MMP9 tetramers from unique substrates, unrounded values
# [1] = RP of matching tetramer, unique part of MMP2 selectome, RP above KL threshold
# [2] = RP of matching tetramer, unique part of MMP2 selectome
# [3] = average relative probability of the P3-P1' tetramer, redundant tetramers have been averaged out
# [4] = MMP2, RP of matching P3-P1' tetramer, common set of MMP2-9 selectome, RP above KL threshold
# [5] = RP of matching tetramer, common MMP2-9 selectome
# [6] = MMP9, RP of matching P3-P1' tetramer, common set of MMP2-9 selectome
# [7] = MMP9, RP of the P3-P1' tetramer matching the MS detected cleavage, RP above 4.7, substrate phage display with NGS
# [8] = RP of matching tetramer, common MMP2-9 selectome, RP above KL threshold
# [9] = RP of the P3-P1' tetramer, MMP2 substrate phage display/NGS, tetramers of physiologic MEROPS substrates common to MMP2 and MMP9
# [10] = RP of the P3-P1' tetramer, MMP9 substrate phage display/NGS, tetramers of physiologic MEROPS substrates common to MMP2 and MMP9
# [11] = RP of the P3-P1' tetramer cluster contained in the hexamer, 200 nM MMP-2, 2 h, 37°C, two rounds of selection
# [12] = MMP9, RP of the P3-P1' tetramer contained in the hexamer substrate (substrate phage display, NGS)
# [13] = RP according to MMP2, P3-P1' tetramer of unique physiologic MMP2 substrates from MEROPS
# [14] = RP according to MMP9, P3-P1' tetramer of unique physiologic MMP9 substrates from MEROPS
# [15] = tetramer projected onto MMP-9 cleavage sites determined by Prudova et al. (2010)
substance,measurement,setting,value
LAYL,relative probability (RP) of matching tetramer,MMP-2,25.34
same,relative probability (RP) (acc.to MMP2),MMP-2; [1],25.34
same,normalized RP - MMP2,MMP-2; unique part of MMP2 selectome,0.6939
same,relative probability (RP) (acc.to MMP9),MMP-9; [2],2.51
same,normalized RP - MMP9,MMP-9; unique part of MMP2 selectome,0.04792
LAWL,avg_RP,MMP-2; [3],22.0358
same,relative probability (RP) (acc.to MMP2),MMP-2; [4],22.04
same,relative probability (RP) of matching tetramer,MMP-2,22.04
same,relative probability (RP) (acc.to MMP2),MMP-2; [5],22.04
same,relative probability (RP) (acc.to MMP9),MMP-9; [6],19.78
same,relative probability (RP),MMP-9; [7],19.78
same,relative probability (RP) (acc.to MMP9),MMP-9; [8],19.78
PKGQ,relative probability (RP) (acc.to MMP2),MMP-2; [9],21.45
same,relative probability (RP) (acc.to MMP9),MMP-9; [10],35.93
LRGL,relative probability (RP) (acc.to MMP2),MMP-2; [9],20.33
same,relative probability (RP) (acc.to MMP9),MMP-9; [10],28.75
PRHS,relative probability (RP) (acc.to MMP2),MMP-2; [4],13.22
same,relative probability (RP) of matching tetramer,MMP-2,13.22
same,relative probability (RP) (acc.to MMP2),MMP-2; [5],13.22
same,relative probability (RP) (acc.to MMP9),MMP-9; [6],18.44
same,relative probability (RP),MMP-9; [7],18.44
same,relative probability (RP) (acc.to MMP9),MMP-9; [8],18.44
QSPINL,relative probability (RP),MMP-2; [11],31.6393
same,relative probability (RP),MMP-9; [12],44.8884
LGVM,MMP2 relative probability (RP),MMP-2,4.758
same,Relative probability (RP) rank,MMP-2; [13],7712
same,relative probability (RP),MMP-2; [13],4.76
same,relative probability (RP) (acc.to MMP2),MMP-2; [9],4.76
same,corresponding MMP9 relative probability (RP),MMP-9,1.791
same,Relative probability (RP) rank,MMP-9; [14],10648
same,relative probability (RP),MMP-9; [14],1.79
same,relative probability (RP) (acc.to MMP9),MMP-9; [10],1.79
GPRYLM,relative probability (RP),MMP-2; [11],30.5447
same,relative probability (RP),MMP-9; [12],44.5304
PAGE,relative probability (RP) (acc.to MMP2),MMP-2; [9],0.05
same,relative probability (RP) (acc.to MMP9),MMP-9; [10],0.06
GSAL,relative probability (RP) of matching tetramer,MMP-2,9.27
same,relative probability (RP) (acc.to MMP2),MMP-2; [1],9.27
same,normalized RP - MMP2,MMP-2; unique part of MMP2 selectome,0.2538
same,relative probability (RP) (acc.to MMP9),MMP-9; [2],2.8
same,normalized RP - MMP9,MMP-9; unique part of MMP2 selectome,0.05346
AIHI,relative probability (RP) (acc.to MMP2),MMP-2; [9],4.71
same,relative probability (RP) (acc.to MMP9),MMP-9; [10],5.64
AMFL,corresponding MMP2 relative probability (RP),MMP-2,15.1166
same,MMP9 relative probability (RP),MMP-9,1.089
PKFL [P3-P1' tetramer cluster],avg_RP,"MMP-2; average relative probability of the tetramer, redundant tetramers averaged out",23.745
same,relative probability (RP),MMP-9; [15],42.75
PAGVKA,relative probability (RP),MMP-2; [11],28.6381
same,relative probability (RP),MMP-9; [12],31.0803
PQPSEL,relative probability (RP),MMP-2; [11],31.5156
same,relative probability (RP),MMP-9; [12],41.3266
EMRL,corresponding MMP2 relative probability (RP),MMP-2,11.559
same,MMP9 relative probability (RP),MMP-9,0.2922
ALYL,corresponding MMP2 relative probability (RP),MMP-2,5.662
same,MMP9 relative probability (RP),MMP-9,1.807
IGNM,relative probability (RP) (acc.to MMP2),MMP-2; [4],29.21
same,relative probability (RP) of matching tetramer,MMP-2,29.21
same,relative probability (RP) (acc.to MMP9),MMP-9; [6],9.58
GPKG,relative probability (RP) (acc.to MMP2),MMP-2; [9],1.49
same,relative probability (RP) (acc.to MMP9),MMP-9; [10],2.81
LGRF,MMP2 relative probability (RP),MMP-2,13.9898
same,Relative probability (RP) rank,MMP-2; [13],3427
same,relative probability (RP),MMP-2; [13],13.99
same,corresponding MMP9 relative probability (RP),MMP-9,1.477
PRPFHH,relative probability (RP),MMP-2; [11],32.5323
same,relative probability (RP),MMP-9; [12],43.6397
NPQNIR,relative probability (RP),MMP-2; [11],27.128
same,relative probability (RP),MMP-9; [12],44.0295
VGKL,MMP2 relative probability (RP),MMP-2,21.0562
same,Relative probability (RP) rank,MMP-2; [13],1553
same,relative probability (RP),MMP-2; [13],21.06
same,corresponding MMP9 relative probability (RP),MMP-9,3.141
same,Relative probability (RP) rank,MMP-9; [14],7569
same,relative probability (RP),MMP-9; [14],3.14
SPPAAI,relative probability (RP),MMP-2; [11],32.0972
same,relative probability (RP),MMP-9; [12],46.1642
PRGY,relative probability (RP) (acc.to MMP2),MMP-2; [4],34.02
same,relative probability (RP) of matching tetramer,MMP-2,34.02
same,relative probability (RP) (acc.to MMP2),MMP-2; [5],34.02
same,relative probability (RP) (acc.to MMP9),MMP-9; [6],46.79
same,relative probability (RP),MMP-9; [7],46.79
same,relative probability (RP) (acc.to MMP9),MMP-9; [8],46.79
NRPNNL,relative probability (RP),MMP-2; [11],27.0562
same,relative probability (RP),MMP-9; [12],38.7188
PLAV,relative probability (RP) (acc.to MMP2),MMP-2; [4],29.15
same,relative probability (RP) of matching tetramer,MMP-2,29.15
same,relative probability (RP) (acc.to MMP2),MMP-2; [5],29.15
same,relative probability (RP) (acc.to MMP9),MMP-9; [6],44.77
same,relative probability (RP),MMP-9; [7],44.77
same,relative probability (RP) (acc.to MMP9),MMP-9; [8],44.77
PSGL,relative probability (RP) (acc.to MMP2),MMP-2; [9],35.5
same,relative probability (RP) (acc.to MMP9),MMP-9; [10],47.39
PRPL [P3-P1' tetramer cluster],avg_RP,MMP-2; [3],34.3303
same,relative probability (RP),MMP-9; [15],46.79
PTGV,relative probability (RP) (acc.to MMP2),MMP-2; [9],13.32
same,relative probability (RP) (acc.to MMP9),MMP-9; [10],11.14
KPVNMT,relative probability (RP),MMP-2; [11],30.0312
same,relative probability (RP),MMP-9; [12],44.4072
SDEL,relative probability (RP) (acc.to MMP2),MMP-2; [9],0
same,relative probability (RP) (acc.to MMP9),MMP-9; [10],0
HQKL,relative probability (RP) (acc.to MMP2),MMP-2; [9],2.29
same,relative probability (RP) (acc.to MMP9),MMP-9; [10],0.06
